Test results: patent US20120322060A1, “DIAGNOSIS AND MONITORING TREATMENT OF PSYCHIATRIC DISEASES WITH SPADIN AND RELATED METHODS” (CENTRE NATIONAL DE LE RECHERCHE SCIENTIFIQUE - CNRS -, priority 2011, published 2012)
“And” between values parts separate entries of the source, which are not always exact repeats. Equal entries are not always repeated. “Also recorded” adds a separate entry of the source. No end group written: not given here.

Tests used:
rats = test: Forced Swim Test (FST) in rats; assay type: in vivo, rat; conditions: acute i.p. 10^-5 M, 30 min before test
Method: Male Sprague-Dawley rats (Janvier, France), weighing 250-300 g were also used for the FST. Rats experienced a pretest session followed 24 h later by a test session. For both the pretest and the test sessions, conducted under low illumination (15 W), the animals were placed in a plastic cylindrical tank (50 cm high by 20 cm in diameter) filled with 40 cm deep water at 24° C. The pretest was carried out for 15 minutes and the test for 5 minutes in the same tank. The total period of immobility was analyzed during the last 4 min.

[1] = tested on: dentate gyrus of the mouse hippocampus; test: Hippocampal neurogenesis (BrdU / DCX labeling); assay type: in vivo
Method: Twenty-four hours after the injection of BrdU (120 mg per kg of body weight in a 300 μl bolus), mice were euthanized and transcardially perfused with 4% cold paraformaldehyde. Serial sections of the brains were cut (40 μm) throughout the entire hippocampus on a vibratome (Leica). Every sixth section throughout the hippocampus was processed for BrdU or doublecortin (DCX) immunohistochemistry, as previously described. For each immunodetection, slides were first incubated overnight at 4° C. with a mouse monoclonal anti-BrdU antibody (1:200; Becton-Dickinson) or a goat anti-DCX (1:400, Santa Cruz Laboratories). For chromogenic immunodetection, sections were then incubated for 1 hour in biotin-conjugated species-specific secondary antibodies (1:100; Vector Laboratories) followed by a peroxidase-avidin complex solution according to the manufacturer's protocol. The peroxidase activity of immune complexes was visualized with DAB staining using the VectaStain ABC kit (Vector Laboratories). For fluorescent double-labeling, performed to determine the cell phenotype, sections were incubated overnight at 4° C. with anti-sheep BrdU (1:200, Interchim), anti-goat DCX (1:200, Santa Cruz Laboratories), or an anti-GFAP (Glial Fibrillary acidic protein, marker for astrocytes, 1:250, Dako). […] All BrdU-labeled cells in the granular cell layer and subgranular zone (SGZ) were counted in each section (n=10 and 5 mice per group) at 400× and 1000× magnification under a light microscope (Olympus) by an experimenter blinded to the study code. The total number of BrdU-positive cells per section was multiplied by 6 to obtain the total number of cells per dentate gyrus. The counting of BrdU/DCX labeled cells was performed using a Laser Scanning Confocal Microscope (TCS SP, Leica) equipped with a DMIRBE inverted microscope.

TREK-1 = molecular target: T1, TREK-1 (Mus musculus, UniProt P97438); test: Whole-cell patch-clamp on TREK-1 transfected COS-7 cells; assay type: cell-based; set-up: GFP; expressed in transfected cells; host or cells: COS-7 (DEAE-dextran transfection); conditions: after 90 sec of application
T1 sequence (P97438 1-426): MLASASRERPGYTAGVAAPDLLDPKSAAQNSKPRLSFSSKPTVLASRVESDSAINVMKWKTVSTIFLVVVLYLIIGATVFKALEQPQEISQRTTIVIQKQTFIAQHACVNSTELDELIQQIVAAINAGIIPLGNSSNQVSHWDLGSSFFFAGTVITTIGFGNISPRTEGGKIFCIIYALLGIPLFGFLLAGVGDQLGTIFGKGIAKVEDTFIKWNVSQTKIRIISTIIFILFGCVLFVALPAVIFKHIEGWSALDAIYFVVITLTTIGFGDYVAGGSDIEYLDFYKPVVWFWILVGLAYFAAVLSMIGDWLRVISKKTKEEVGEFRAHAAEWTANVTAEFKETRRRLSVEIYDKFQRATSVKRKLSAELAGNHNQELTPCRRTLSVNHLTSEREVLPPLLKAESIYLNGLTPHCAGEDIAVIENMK
Method: All electrophysiological experiments were done on COS-7 cells seeded at a density of 20,000 cells/35-mm dish 24 h before transfection. Cells were transfected by the classical DEAE-dextran method with TREK-1-GFP plasmids (0.1 μg/μL). Cells were visualized 48-72 h after transfection using fluorescence.
The whole-cell patch-clamp technique was used to evaluate TREK-1 potassium channel current by using a RK 400 patch-clamp amplifier (Axon Instruments, U.S.A.), as previously described. Currents were lowpass filtered at 3 kHz, digitized at 10 kHz using a 12-bit analog-to-digital converter. […] The bath solution contained (in mM): 150 NaCl, 5 KCl, 3 MgCl2, 1 CaCl2, and 10 HEPES, adjusted to pH 7.4 with NaOH; the patch pipette solution contained (in mM): 155 KCl, 3 MgCl2, 5 EGTA, and 10 HEPES, adjusted to pH 7.2 with KOH. Cells were clamped at −80 mV and voltage changes were either applied by ramp (from −100 to 50 mV, 1 s in duration) or by step (from −100 to 40 mV, 1.5 s in duration). Cells were continuously superfused with a microperfusion system. The pipette capacitance was not subtracted from total membrane capacitance and there was no leak substraction. All experiments were done at room temperature (21° C. to 22° C.) and in the presence of a cocktail of potassium channel inhibitors (K^+ blockers: 10 mM tetraethyl ammonium (TEA), 3 mM 4-aminopyridine (4-AP), 50 nM charybdotoxin, 10 μM glibenclamide, 100 nM apamin).
Pclamp software was used to analyze currents recorded in the whole-cell mode measured at 0 mV. Results are expressed as means±SD. To obtain the IC50 value for dose-dependent inhibition, experimental data were fitted with a standard sigmoidal function.

DRN 5-HT neurons = test: Rat extracellular unitary recordings of DRN 5-HT neurons; assay type: in vivo; conditions: rats, 10^-5 M in 500 μl bolus i.p.
Method: Single-barreled glass micropipettes (recording electrodes) were filled with a 2 M NaCl solution saturated with Fast Green FCF, resulting in an impedance of 2-5 MΩ. Rats were anaesthetized with chloral hydrate (400 mg/kg, i.p., using a 8% solution), and placed in a stereotaxic frame. A burr hole was drilled on the midline 1 mm anterior to lambda. DRN 5-HT neurons were encountered over a distance of 1 mm starting immediately below the ventral border of the Sylvius aqueduct. They were identified using the following criteria: a slow (0.5-2.5 Hz) and regular firing rate and long-duration (0.8-1.2 ms) action potentials, with a positive-negative spike. Spikes were computed by using the Spike 2 software, so that the firing rate was calculated as the mean number of events occurring within a 10 s period. For each neuron, the discharge was monitored during 60 seconds. Each rat received either spadin (10^−5M in a 500 μl bolus) or its vehicle. Starting 30 min after the injection, 2 to 3 successive descents were performed along the DRN, for a total of 8-12 cells recorded per animal. Recordings were performed for a maximal duration of 4 hours post-injection.

APLPRWSGPIGVSWGLR [spadin]
immobility time versus saline (rats): significantly reduced immobility time; also recorded: shorter time of immobility | BrdU-labelled cells expressing DCX ([1]; 4-day treatment): 85.2% and 85% | number of BrdU-positive cells in the SGZ versus saline ([1]; 4-day treatment, spadin i.p. 10^-5 M): significantly increased by two-fold | number of BrdU-positive cells versus saline ([1]; 15 days): maintained | inhibition of current increase induced by 10 μM aa (TREK-1): inhibited the aa-induced increase | DRN 5-HT neuron firing rate (DRN 5-HT neurons): 2.66±0.36 Hz | increase of DRN 5-HT neuron firing rate versus saline (DRN 5-HT neurons): 125%
